Assay results as given in PMC11198769, “Enhancement of transcription efficiency by TAR-Tat system increases the functional expression of human olfactory receptors” (PLOS ONE, 2024).

What was measured:
Assay in all cases: Comprehensive analysis (screening) of hORs against n-hexanal
Format in all cases: cell-based
OR10A2 = biological target: T1, OR10A2 (Homo sapiens, UniProt Q9H208); conditions: OR10A2, 500 μM n-hexanal, with the TAR-Tat system (hOR/pHEK), n = 1
T1 construct: Lucy tag (N); expressed in transfected cells; host or cells: Flp-In T-REx-293 cells stably expressing RTP1S, Gαolf and Ric8-b
T1 sequence (Q9H208 1-303): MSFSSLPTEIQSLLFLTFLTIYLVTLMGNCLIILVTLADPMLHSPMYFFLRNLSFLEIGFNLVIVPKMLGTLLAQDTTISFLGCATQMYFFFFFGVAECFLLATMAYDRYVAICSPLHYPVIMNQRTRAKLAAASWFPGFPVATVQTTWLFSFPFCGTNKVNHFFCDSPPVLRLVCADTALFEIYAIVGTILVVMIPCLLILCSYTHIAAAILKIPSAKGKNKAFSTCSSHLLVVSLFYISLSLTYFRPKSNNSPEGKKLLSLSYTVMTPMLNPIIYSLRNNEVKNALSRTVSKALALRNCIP
Description: (§1) Transfection was performed as described in the “hOR assay,” but 12.5 ng of 379 hOR plasmids (hOR/pBApo and hOR/pHEK) was transfected with the 12.5 ng pGlosensor^TM-22F cAMP biosensor plasmid (Promega) in 384 plates per well. After loading the GloSensor cAMP substrate and preincubation, the assay buffer was added (30 μL/well). After 10 min of equilibration, luminescence was measured (L0). Then, 50 mM n-hexanal, which was diluted with 10% DMSO/assay buffer, was added (4.7 μL/well). After 9 min, luminescence was measured (L9min). All the L9min values were subtracted by the L0 value (ΔL).

OR10H3 = biological target: T2, OR10H3 (Homo sapiens, UniProt O60404); conditions: OR10H3, 500 μM n-hexanal, with the TAR-Tat system (hOR/pHEK), n = 1
T2 construct: Lucy tag (N); expressed in transfected cells; host or cells: Flp-In T-REx-293 cells stably expressing RTP1S, Gαolf and Ric8-b
T2 sequence (O60404 1-316): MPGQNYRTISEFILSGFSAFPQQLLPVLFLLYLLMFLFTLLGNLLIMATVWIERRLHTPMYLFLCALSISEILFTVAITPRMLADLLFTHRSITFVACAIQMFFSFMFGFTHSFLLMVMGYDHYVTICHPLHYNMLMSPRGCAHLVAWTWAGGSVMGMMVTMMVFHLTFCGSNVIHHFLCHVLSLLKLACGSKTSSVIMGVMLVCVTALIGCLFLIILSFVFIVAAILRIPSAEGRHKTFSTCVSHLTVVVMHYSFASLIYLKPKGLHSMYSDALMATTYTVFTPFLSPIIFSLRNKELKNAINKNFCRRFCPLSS
Description: as §1

OR1A1 = biological target: T3, OR1A1 (Homo sapiens, UniProt Q9P1Q5); conditions: OR1A1, 500 μM n-hexanal, n = 1
T3 construct: Lucy tag (N); FLAG (N); Rho tag (N); expressed in transfected cells; host or cells: Flp-In T-REx-293 cells stably expressing RTP1S, Gαolf and Ric8-b
T3 sequence (Q9P1Q5 1-309): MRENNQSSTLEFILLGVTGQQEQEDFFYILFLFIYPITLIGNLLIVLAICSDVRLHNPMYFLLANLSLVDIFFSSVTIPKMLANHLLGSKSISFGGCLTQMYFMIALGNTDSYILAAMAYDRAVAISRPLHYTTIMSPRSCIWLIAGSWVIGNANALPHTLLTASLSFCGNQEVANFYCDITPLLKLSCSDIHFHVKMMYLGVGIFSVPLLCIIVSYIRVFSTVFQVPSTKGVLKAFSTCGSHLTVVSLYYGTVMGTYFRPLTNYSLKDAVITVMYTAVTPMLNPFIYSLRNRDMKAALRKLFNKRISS
Description: as §1

OR2J3 = biological target: T4, OR2J3 (Homo sapiens, UniProt O76001); conditions: OR2J3, 500 μM n-hexanal, n = 1
T4 construct: Lucy tag (N); FLAG (N); Rho tag (N); expressed in transfected cells; host or cells: Flp-In T-REx-293 cells stably expressing RTP1S, Gαolf and Ric8-b
T4 sequence (O76001 1-311): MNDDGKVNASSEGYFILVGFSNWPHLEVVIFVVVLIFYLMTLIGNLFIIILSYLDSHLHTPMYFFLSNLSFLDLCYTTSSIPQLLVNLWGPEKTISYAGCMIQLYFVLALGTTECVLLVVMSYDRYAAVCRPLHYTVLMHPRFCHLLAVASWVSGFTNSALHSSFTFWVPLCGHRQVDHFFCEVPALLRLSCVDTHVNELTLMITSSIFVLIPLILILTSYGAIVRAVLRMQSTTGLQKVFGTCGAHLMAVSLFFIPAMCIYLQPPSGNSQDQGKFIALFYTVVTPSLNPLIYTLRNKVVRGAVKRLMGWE
Description: as §1

OR2M3 = biological target: T5, OR2M3 (Homo sapiens, UniProt Q8NG83); conditions: OR2M3, 500 μM n-hexanal, with the TAR-Tat system (hOR/pHEK), n = 1
T5 construct: Lucy tag (N); expressed in transfected cells; host or cells: Flp-In T-REx-293 cells stably expressing RTP1S, Gαolf and Ric8-b
T5 sequence (Q8NG83 1-312): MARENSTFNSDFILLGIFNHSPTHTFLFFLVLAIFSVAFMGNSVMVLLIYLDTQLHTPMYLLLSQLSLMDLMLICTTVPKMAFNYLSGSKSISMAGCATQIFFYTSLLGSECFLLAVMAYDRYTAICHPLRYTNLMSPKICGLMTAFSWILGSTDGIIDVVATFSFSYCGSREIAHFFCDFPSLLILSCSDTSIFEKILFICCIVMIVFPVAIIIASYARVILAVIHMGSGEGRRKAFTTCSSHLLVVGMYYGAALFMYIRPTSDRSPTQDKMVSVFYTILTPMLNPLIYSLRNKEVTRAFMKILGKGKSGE
Description: as §1

OR5M3 = biological target: T6, OR5M3 (Homo sapiens, UniProt Q8NGP4); conditions: OR5M3, 500 μM n-hexanal, with the TAR-Tat system (hOR/pHEK), n = 1
T6 construct: Lucy tag (N); FLAG (N); Rho tag (N); expressed in transfected cells; host or cells: Flp-In T-REx-293 cells stably expressing RTP1S, Gαolf and Ric8-b
T6 sequence (Q8NGP4 1-307): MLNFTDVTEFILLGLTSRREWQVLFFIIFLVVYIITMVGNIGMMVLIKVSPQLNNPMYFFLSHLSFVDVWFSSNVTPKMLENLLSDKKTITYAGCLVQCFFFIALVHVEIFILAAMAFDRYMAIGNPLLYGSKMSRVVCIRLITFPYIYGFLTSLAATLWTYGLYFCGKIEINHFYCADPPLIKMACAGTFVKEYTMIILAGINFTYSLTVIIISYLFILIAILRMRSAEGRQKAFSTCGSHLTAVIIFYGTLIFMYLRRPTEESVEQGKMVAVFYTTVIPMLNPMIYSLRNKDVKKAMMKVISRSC
Description: as §1

[1] = with the TAR-Tat system (hOR/pHEK)
[2] = without the TAR-Tat system (control plasmid)

CCCCCC=O [n-hexanal]
response value (ΔL) (OR10A2): > 500 | response value (ΔL) (OR10H3): > 500 | response value (ΔL) (OR1A1; [1]): 6675 | response value (ΔL) (OR1A1; [2]): 974 | response value (ΔL) (OR2J3; [1]): 1580 | response value (ΔL) (OR2J3; [2]): 549 | response value (ΔL) (OR2M3): −620 | response value (ΔL) (OR5M3): > 500
